Reference: PubChem BioAssay (NCI)
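Each compound was tested at five concentrations against cells in 96-well plates for 48 hours. Here, GI50 denotes the concentration required for 50% inhibition of growth. TGI: total growth inhibition.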

Columns and labels:
Experiment in all cases: NCI-60 cell line screen, 48 h
[1] = tested on: 786-0 renal
[2] = tested on: CAKI-1 renal
[3] = tested on: HCC-2998 colon
[4] = tested on: IGROV1 ovarian
[5] = tested on: M14 melanoma
[6] = tested on: NCI-H460 lung
[7] = tested on: SF-539 CNS
[8] = tested on: SW-620 colon
[9] = tested on: UACC-257 melanoma
[10] = tested on: DU-145 prostate

Row | SMILES | GI50 [1] [µM] | TGI [1] [µM] | GI50 [2] [µM] | TGI [2] [µM] | GI50 [3] [µM] | TGI [3] [µM] | GI50 [4] [µM] | TGI [4] [µM] | GI50 [5] [µM] | TGI [5] [µM] | GI50 [6] [µM] | TGI [6] [µM] | GI50 [7] [µM] | TGI [7] [µM] | GI50 [8] [µM] | TGI [8] [µM] | GI50 [9] [µM] | TGI [9] [µM] | GI50 [10] [µM] | TGI [10] [µM]
1 | CCCCCCC[CH2][Sn]1([CH2]CCCCCCC)[O]C(=O)c2cccnc2[S]1 | > 100 | > 100 | > 100 | > 100 | > 100 | > 100 | > 100 | > 100 | > 100 | > 100 | > 100 | > 100 | > 100 | > 100 | > 100 | > 100 | > 100 | > 100 | – | –
2 | O=C(NCCCCN=c1cccccc1NCCCCNC(=O)OCc1ccccc1)OCc1ccccc1 | – | 31.8 | – | 37.9 | – | 32.1 | – | 54.1 | – | 29.4 | – | 26.4 | – | 31.8 | – | 41.7 | – | 29.3 | – | –
3 | Cc1c(Cl)cccc1N1C(=O)C(Cl)=C(Cl)C1=O | – | > 100 | – | > 80.9 | – | > 100 | – | > 100 | – | > 100 | – | > 100 | – | > 100 | – | > 100 | – | > 100 | – | –
4 | C[C@H]1NC(=O)C2CCCCN2C(=O)CN(C)C(=O)CNC(=O)C2CCCCN2C(=O)[C@@H](NC(=O)c2nc3ccccc3cc2O)[C@@H](C)NC(=O)C2CCCCN2C(=O)CN(C)C(=O)CNC(=O)[C@@H]2CCCCN2C(=O)C1NC(=O)c1nc2ccccc2cc1O (some centres undefined) | – | 31.8 | – | 0.768 | – | 0.479 | – | > 100 | – | 1.27 | – | > 100 | – | 0.698 | – | 12.3 | – | 0.537 | – | –
5 | O=C(O)[C@H](NS(=O)(=O)c1ccc2ccccc2c1)c1ccccc1 | – | > 100 | – | > 100 | – | > 100 | – | > 100 | – | > 100 | – | > 100 | – | > 100 | – | – | – | > 100 | – | –
6 | CCc1cccc(C)c1NC(=O)C(=O)Cc1nc2ccccc2o1 | – | > 100 | – | > 100 | – | > 100 | – | > 100 | – | > 100 | – | > 100 | – | > 100 | – | > 100 | – | > 100 | – | –
7 | Cc1ccc(/C=C/c2c(C(=O)/C=C/c3ccc(C(F)(F)F)cc3)c(C)nc3ccccc23)cc1 | 1.7 | 3.18 | 1.11 | 2.32 | 1.48 | 2.81 | 0.6 | 2.02 | – | – | 1.53 | 3.22 | 1.79 | 3.26 | 1.29 | 4.38 | 2.15 | 4.95 | 1.56 | 2.9
8 | CCOC(=O)NC(=O)c1cn(CCOC(=O)NCCCCCCNC(=O)OCCn2cc(C(=O)NC(=O)OCC)c(=O)[nH]c2=O)c(=O)[nH]c1=O | – | > 100 | – | > 100 | – | > 100 | – | > 100 | – | > 100 | – | > 100 | – | – | – | > 100 | – | > 100 | – | –
9 | CCOc1ccc(N2C(=O)/C(=C/c3ccc(N(CCC#N)CCC#N)cc3)N=C2c2cc([N+](=O)[O-])ccc2Cl)cc1 | – | 26.4 | – | 87.1 | – | > 100 | – | – | – | 61.3 | – | 55.7 | – | > 100 | – | 55.9 | – | – | – | –
10 | CN(C)c1c([O-])c(=[N+](C)C)c1=O | – | > 100 | – | > 100 | – | > 100 | – | > 100 | – | > 100 | – | > 100 | – | > 100 | – | > 100 | – | > 100 | – | –
